SMILES strings stand for the structures.

The target of this assay is T1, Msh2–Msh6 (Saccharomyces cerevisiae, UniProt P25847+Q03834, P25847:K694M).
T1 sequence (P25847 1-964 K694M): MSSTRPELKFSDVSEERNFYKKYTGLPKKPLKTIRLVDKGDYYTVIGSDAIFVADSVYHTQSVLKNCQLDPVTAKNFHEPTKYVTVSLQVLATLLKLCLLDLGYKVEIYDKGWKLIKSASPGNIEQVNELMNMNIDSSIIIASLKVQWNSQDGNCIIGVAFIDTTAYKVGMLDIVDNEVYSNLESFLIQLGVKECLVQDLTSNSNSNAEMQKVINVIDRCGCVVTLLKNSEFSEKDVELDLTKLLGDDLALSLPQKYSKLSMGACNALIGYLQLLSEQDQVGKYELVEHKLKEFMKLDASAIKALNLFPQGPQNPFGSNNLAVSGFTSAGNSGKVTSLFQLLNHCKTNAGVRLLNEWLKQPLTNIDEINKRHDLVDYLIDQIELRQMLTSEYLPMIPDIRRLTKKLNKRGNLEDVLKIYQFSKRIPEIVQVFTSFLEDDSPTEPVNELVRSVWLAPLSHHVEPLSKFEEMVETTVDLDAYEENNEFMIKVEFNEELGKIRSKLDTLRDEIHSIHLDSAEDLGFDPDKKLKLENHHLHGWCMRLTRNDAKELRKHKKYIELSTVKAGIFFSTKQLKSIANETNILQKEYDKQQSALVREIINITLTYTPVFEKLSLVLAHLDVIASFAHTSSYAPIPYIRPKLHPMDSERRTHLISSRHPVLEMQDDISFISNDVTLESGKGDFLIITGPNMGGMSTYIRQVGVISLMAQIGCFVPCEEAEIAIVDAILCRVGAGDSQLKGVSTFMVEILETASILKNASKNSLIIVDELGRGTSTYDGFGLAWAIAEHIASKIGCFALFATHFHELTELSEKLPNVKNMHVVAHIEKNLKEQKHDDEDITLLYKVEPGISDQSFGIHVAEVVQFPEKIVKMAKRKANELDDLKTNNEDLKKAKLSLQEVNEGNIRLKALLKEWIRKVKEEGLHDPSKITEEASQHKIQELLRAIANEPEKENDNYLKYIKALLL
T1 sequence (Q03834 1-1242): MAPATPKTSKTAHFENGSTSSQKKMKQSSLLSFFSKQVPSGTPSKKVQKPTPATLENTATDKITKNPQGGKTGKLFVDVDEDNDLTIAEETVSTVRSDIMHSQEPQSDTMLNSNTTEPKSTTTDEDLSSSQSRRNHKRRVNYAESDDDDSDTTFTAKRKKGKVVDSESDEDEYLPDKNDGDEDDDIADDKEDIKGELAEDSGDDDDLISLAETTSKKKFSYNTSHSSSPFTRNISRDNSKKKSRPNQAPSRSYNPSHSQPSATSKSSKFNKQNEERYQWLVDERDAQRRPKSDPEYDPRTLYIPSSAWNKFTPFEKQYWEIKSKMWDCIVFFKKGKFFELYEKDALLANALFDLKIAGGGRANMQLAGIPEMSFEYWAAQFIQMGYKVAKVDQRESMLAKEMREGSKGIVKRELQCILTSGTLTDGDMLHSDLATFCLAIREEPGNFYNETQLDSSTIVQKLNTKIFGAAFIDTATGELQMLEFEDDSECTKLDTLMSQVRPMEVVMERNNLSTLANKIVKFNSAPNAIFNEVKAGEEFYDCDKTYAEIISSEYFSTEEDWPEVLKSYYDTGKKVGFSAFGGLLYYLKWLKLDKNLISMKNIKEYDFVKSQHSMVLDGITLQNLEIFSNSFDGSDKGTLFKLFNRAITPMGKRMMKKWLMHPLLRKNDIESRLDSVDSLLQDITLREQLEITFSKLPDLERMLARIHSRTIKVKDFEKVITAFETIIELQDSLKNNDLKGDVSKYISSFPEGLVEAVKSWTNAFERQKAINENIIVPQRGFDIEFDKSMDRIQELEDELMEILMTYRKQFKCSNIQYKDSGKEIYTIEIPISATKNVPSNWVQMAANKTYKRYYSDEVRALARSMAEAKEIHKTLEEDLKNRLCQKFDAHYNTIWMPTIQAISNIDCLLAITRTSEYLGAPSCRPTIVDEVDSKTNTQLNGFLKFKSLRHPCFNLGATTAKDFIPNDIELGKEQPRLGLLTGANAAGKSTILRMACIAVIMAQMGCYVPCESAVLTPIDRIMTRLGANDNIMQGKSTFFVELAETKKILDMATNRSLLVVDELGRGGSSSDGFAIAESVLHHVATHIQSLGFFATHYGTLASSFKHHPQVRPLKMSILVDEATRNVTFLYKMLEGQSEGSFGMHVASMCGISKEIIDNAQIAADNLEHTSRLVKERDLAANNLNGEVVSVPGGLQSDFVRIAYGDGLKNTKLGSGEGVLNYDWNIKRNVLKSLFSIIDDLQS
Kind of assay: UV cross-linking of [γ-32P]ATP, SDS-PAGE, phosphorimaging. The assay is classed as binding. Particulars: labelled compound; no Mg2+, EDTA, pH 8, on ice; Msh2 site at 60 μM ATP, Msh6 site at 1 μM ATP.

On to `Nc1ncnc2c1ncn2[C@@H]1O[C@H](COP(=O)(O)OP(=O)(O)OP(=O)(O)O)[C@@H](O)[C@H]1O` [ATP], for which the “relative ATP binding” value is “Msh2(K694M)–Msh6 mutant complex was only defective for binding ATP to the Msh2 subunit”.

Values taken from article PMC6254361, “The properties of Msh2–Msh6 ATP binding mutants suggest a signal amplification mechanism in DNA mismatch repair” (The Journal of Biological Chemistry, 2018).
